Experimental data as given in the METLIN SMRT retention time set (Domingo-Almenara et al. 2019).

Test: gradient 5% acetonitrile 3 min, to 50% in 2 min, to 85% in 15 min, held 3 min, 100 µL/min
Details: column: Zorbax Extend-C18 2.1 x 50 mm; eluents: water / acetonitrile, 0.1% formic acid
Method in brief: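 Mixtures of ~100 pure standards were chromatographed on a Zorbax Extend-C18 column (2.1 × 50 mm, 1.8 μm) at 100 μL/min using water and acetonitrile, each with 0.1% formic acid. Detection used a quadrupole time-of-flight mass spectrometer in positive and negative ionization mode, and data collection spanned 3 months. Retention time was obtained from adduct peaks picked computationally and each checked manually.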

| RP-LC retention time [s] | SMILES |
| --- | --- |
| 692 | O=C(CN1CCN(Cc2ccc(F)cc2Cl)C1=O)NC1CC1 |
| 868 | COc1ccc(OCc2nc(-c3ccc(NS(C)(=O)=O)cc3)no2)cc1 |
| 807 | CCCn1c(=O)sc2cc(S(=O)(=O)N3CCC(C(=O)N4CCCC4)CC3)ccc21 |
| 800 | O=C1[C@H]2CN(Cc3cccc(F)c3)C[C@H]2C(=O)N1Cc1ccc2c(c1)OCO2 |
| 885 | CC(C)NC(=O)c1cc2nc(N(C)C)n(-c3ccccc3)c2s1 |
| 611 | COCCNc1c(-c2ccccc2)nc2sc(C(=O)NCc3cccnc3)c(C)n12 |
| 659 | O=C(NC1CCN(Cc2ccccc2)CC1)C1CCCN(c2nnc(-n3cccc3)s2)C1 (stereo not given) |
| 741 | CC(C)C(NC(=O)c1ccco1)c1nc(-c2ccc3c(c2)ncn3C2CCCC2)no1 (stereo not given) |
| 812 | COC(=O)c1ccccc1S(=O)(=O)N1CCN(Cc2nnnn2-c2ccccc2)CC1 |
| 813 | Cc1nc(-c2nc(-c3cccs3)cs2)cn1CC(=O)N1CCN(c2ccccc2)CC1 |
| 758 | COc1ccccc1C(=O)N1C[C@H](c2nc(-c3cccnc3)no2)[C@@H](C)C1 |
| 716 | Cc1ccc(CN2CC(c3nc(CCOCc4ccccc4)no3)C2)s1 |
| 1110 | COc1cccc(NC(=O)Cn2nc3cc(C)nc(Nc4cc(C)cc(C)c4)n3c2=O)c1 |
| 960 | CCc1ccccc1NS(=O)(=O)c1ccc(-c2nnc(C3CCC3)o2)o1 |
| 701 | Fc1ccc(-c2noc(-c3nnc(NCCN4CCOCC4)c4ccccc34)n2)cc1 |
| 650 | O=C(NCc1cccs1)C1CCCN(c2nnc3ccc(Cl)cn23)C1 (stereo not given) |
| 779 | Cc1ccccc1S(=O)(=O)N1CCC(c2cc(N)on2)CC1 |
| 899 | CC(C)NC(=O)c1ccc(OCC2CCN(C(=O)c3cccc(Cl)c3)CC2)cc1 |
| 1060 | CSc1ccc(CNC(=O)C2CCCN(c3ncc(-c4ccccc4)cn3)C2)cc1 (stereo not given) |
| 845 | O=C(NCc1ccc2c(c1)OCO2)C1COC2(CCCCC2)N1C(=O)c1cccc(F)c1 (stereo not given) |
| 710 | CCc1ccc(CNC(=O)c2cn3c(n2)COCC3)cc1 |
| 739 | Cc1cc(C(F)(F)F)nn1CC(=O)NCC12CCC=C1N(C)C(=O)CC2 (stereo not given) |
| 708 | Cn1ncc2c(N3CCOCC3)nc(C(=O)NCc3ccc(F)cc3)nc21 |

| RP-LC retention time [s] | SMILES |
| --- | --- |
| 640 | Cc1nc2cc(-c3noc(-c4ccccc4C)n3)ccc2o1 |
| 766 | CCN1CCn2cc(S(=O)(=O)Nc3ccc(Cl)cc3)cc2C1=O |
| 645 | CC1=C(C(=O)OCCC#N)C(c2ccccc2F)NC(=O)N1 (stereo not given) |
| 697 | CCN(CC)CCNC(=O)Cn1ncc2c3ccccc3n(C)c2c1=O |
| 801 | CCCCC(=O)Nc1nc(-c2ccc3c(c2)NC(=O)CO3)cs1 |
| 944 | COc1ccccc1NC(=O)Cn1nc2cc(-c3ccccc3)nc(C)n2c1=O |
| 652 | Cc1ccc(CNC(=O)NCCn2cnc3cc(C(=O)NC4CCCC4)ccc32)cc1 |
| 694 | COc1cc(NC(=O)C2CC(=O)N(c3ccc4c(c3)CCN4C(C)=O)C2)cc(OC)c1 (stereo not given) |
| 645 | CCC1CN2C=Nc3oc(C)c(C(=O)NCCc4ccc(OC)c(OC)c4)c3C2=N1 (stereo not given) |
| 998 | CCC(=O)N(C1CCOCC1)C1CCN(S(=O)(=O)c2ccc(F)cc2F)CC1 |
| 887 | Cc1cc2c(c(=O)n(-c3ccc(F)cc3)c(=O)n2CC(=O)Nc2cccc(Cl)c2)n1C |
| 728 | COc1cc(C2=NN(C(C)=O)C(c3cccnc3)O2)cc(OC)c1OC(C)=O (stereo not given) |
| 1010 | Cc1sc(NC(=O)CCc2ccccc2)nc1-c1ccc2c(c1)N(C)C(=O)CO2 |
| 650 | CCc1nc(N)n(CC(=O)Nc2ccc(C)c(C)c2)c(=O)c1C |
| 835 | O=C(NCC(=O)N1CCCc2ccccc21)c1ccc(Cl)cc1 |
| 762 | COC(=O)c1c(C)[nH]c(C(=O)N2CCC(CC(=O)NC(C)c3ccccc3)CC2)c1C (stereo not given) |
| 595 | COCC(C)(O)CNC(=O)Nc1c(F)cccc1F (stereo not given) |
| 888 | CCOC(=O)c1ccc(NC(=O)Nc2cccs2)cc1 |
| 730 | Cc1ccc(C)c(NC(=O)N2C[C@@H](F)C[C@H]2C(=O)N2CCCCC2)c1 |
| 905 | c1ccc(-c2nc3nccc(-c4ccc5c(c4)OCO5)n3n2)cc1 |
| 881 | CC(C(=O)NCCCN(C)c1ccccc1)n1c(=O)c(C(F)(F)F)nc2ccccc21 (stereo not given) |
| 641 | CC1CCCCN1CCNC(=O)CCCn1c(=O)c2cccn2c2ccc(F)cc21 (stereo not given) |
| 720 | O=C(NCCc1csc(C2CCN(C(=O)C3CCCCC3)CC2)n1)C1CCC1 |

| RP-LC retention time [s] | SMILES |
| --- | --- |
| 920 | COc1ccc(-c2noc(C3CCCN3C(=O)Nc3ccc(Cl)cc3)n2)cc1 (stereo not given) |
| 694 | COc1ccc(C2CCCN2C(=O)c2cnn3cccnc23)cc1 (stereo not given) |
| 1040 | CCCn1c(=O)c(C)nc2cc(-c3noc(COc4ccc(OC)cc4)n3)ccc21 |
| 591 | O=C(NCc1cccnc1)C1c2ccccc2C(=O)N(C2CCCC2)C1c1cccs1 (stereo not given) |
| 1060 | O=C(c1ccccc1C(F)(F)F)N1CCc2nc(-c3ccc(Cl)cc3)ncc2C1 |
| 758 | COc1ccc(-c2cc3c4nn(CC(=O)NC(C)C)c(=O)n4ccn3n2)cc1 |
| 740 | COc1ccc(-n2nc3c(N4CCCC(C(=O)NCCc5ccccc5)C4)nnc(C)c3c2C)cc1 (stereo not given) |
| 782 | Cc1ccc(N2CC(C(=O)NCc3nn(C)c4ccccc34)CC2=O)cc1 (stereo not given) |
| 870 | CCc1ccc(NC(=O)N2CCC(c3nc(C(=O)N4CCCC4)c(C)o3)CC2)cc1 |
| 362 | C[C@@H](NCCc1ccc(O)cc1)[C@@H](O)c1ccc(O)cc1 |
| 575 | CCC(=O)Nc1ccc(S(=O)(=O)N2CCC(N3CCOCC3)CC2)cc1 |
| 808 | COc1ccc(C(=O)N2CCC(COc3ccc(C(=O)NC4CC4)cc3)CC2)c(C)c1 |
| 746 | Cc1ccc(Cl)cc1N1CCN(c2cc(C(=O)O)c3cc(NC(=O)C(C)C)ccc3n2)CC1 |
| 897 | COC(=O)c1ccsc1NC(=O)c1ccccc1Cl |
| 617 | CCN1CCC2(CC1)OC(=O)C(C)=C2C(=O)NCCc1ccccc1 |
| 875 | CCCN(Cc1cccs1)C(=O)Nc1cc(OC)c(OC)c(OC)c1 |
| 612 | Cc1ccc(S(=O)(=O)N2C(=O)CCC2C(=O)N2CCN(c3ccccn3)CC2)cc1 (stereo not given) |
| 908 | Cc1ccc(C)c(S(=O)(=O)N2CCCCCC2c2nnc(C)o2)c1 (stereo not given) |
| 774 | O=C(Cn1c(=O)c(CCC(=O)NC2CC2)nc2ccccc21)Nc1cc(F)cc(F)c1 |
| 1030 | CCc1ccc(NC(=O)c2cc(C)n3nccc3n2)cc1 |
| 689 | CCOC(=O)Cc1csc(NC(=O)C2CC(=O)N(c3n[nH]c4ccccc34)C2)n1 (stereo not given) |
| 917 | Cc1nc(C(=O)NCc2ccccc2C(F)(F)F)c(C)o1 |
| 835 | CCCCNC(=O)CN1C(=O)CC(c2cccs2)=Nc2ccccc21 |

| RP-LC retention time [s] | SMILES |
| --- | --- |
| 1170 | Cc1ccc(NC(=O)C2CCCN(S(=O)(=O)c3cc(-c4noc(C5CCC5)n4)cs3)C2)cc1 (stereo not given) |
| 598 | CN(C)CCNC(=O)Cc1cccn1-c1ccc(F)cc1 |
| 858 | CCC(C)NC(=O)CN1C(=O)CCc2cc(S(=O)(=O)N3CCC(C)CC3)ccc21 (stereo not given) |
| 997 | COc1ccc(-c2cc(C(F)F)nn2-c2ccc(S(N)(=O)=O)cc2)cc1F |
| 719 | COc1ccc(C(=O)Nc2cccn3nc(C)nc23)cc1 |
| 769 | Cc1ccc(C)c(CNC(=O)c2ccc3c(c2)nc2n3CCN(C(C)C)C2=O)c1 |
| 805 | O=C(Cn1nc2c(N3CCCCCC3)nccn2c1=O)Nc1cccc(C(F)(F)F)c1 |
| 740 | O=S(=O)(Nc1ccc(F)cc1Cl)c1c[nH]c2ncccc12 |
| 866 | CCc1noc(NC(C)=O)c1-c1ccc(C)c(S(=O)(=O)Nc2ccc(Cl)cc2F)c1 |
| 1100 | Cc1ccc(CN2C(=O)N(c3ccc(F)cc3)c3ncccc3S2(=O)=O)cc1 |
| 707 | Cn1c(=O)c(C(=O)NC2CCCC2)nc2cccnc21 |
| 603 | COc1ccc(NC(=O)CCNc2cnc3cnccn23)cc1Cl |
| 1060 | CCOC(=O)c1noc2nc(C)nc(Nc3cc(C)cc(C)c3)c12 |
| 986 | O=C(Cn1cc(-c2nc(-c3ccc(Cl)cc3)no2)ccc1=O)Nc1ccc2c(c1)OCO2 |
| 643 | O=C(Cc1ccsc1)Nc1ccc(N2CCN(Cc3ccccc3)C2=O)nc1 |
| 855 | COc1cccc(NC(=O)N2CCCC2c2cc(C(C)C)no2)c1 (stereo not given) |
| 552 | Cc1nc([C@@H]2CN(C(=O)c3sccc3C)C[C@H]2C(N)=O)n[nH]1 |
| 829 | CCOc1ccccc1NC(=O)CC1Sc2ccccc2NC1=O (stereo not given) |
| 796 | O=C(c1ccc(Br)o1)N1CCN(c2cc(-c3ccccc3)[nH]n2)CC1 |
| 771 | O=C(NCCc1ccc(F)cc1)C(=O)Nc1cccc(N2CCCC2=O)c1 |

| SMILES | RP-LC retention time [s] |
| --- | --- |
| O=C(CCc1nc(-c2ccc(N3CCCCC3)cc2)no1)N1CCC2(CC1)OCCO2 | 798 |
